Assay results: patent US5364777A, “Method of improving lipase activity using noble gases” (American Air Liquide, priority 1992, dated 1994)

What was measured:
[1] = test system: triacylglycerol lipase EC 3.1.1.3; test: Lipase L-1754 hydrolysis of p-nitrophenyl caprate, butyrate, caproate under gaseous atmospheres (400 nm); type: biochemical, Candida cylindracea; settings: for Maximum enhancement of lipase activity, PNP-Caproate: substrate PNP-Caproate; for Maximum inhibition of lipase activity, PNP-Butyrate: substrate PNP-Butyrate, 10° C.
Experimental: FIGS. 4-6 show a typical and similar enzyme assay carried out on the same enzyme using PNP-butyrate showing inhibition of activity at 10° C. 25° C. and 35° C., respectively. Significant depression in rate is noted.
(§1) Lipase catalysis of lipid conversion was tested using triglycerides, paranitrophenyl (PNP) acetate, PNP-butyrate, PNP-caprate, PNP-caprylate, PNP-caproate, olive oil, standard lipids and triglycerides, and other lipids. […]
(§2) Testing Of An Adequate Procedure
(§3) To Follow Lipase L-1754/p-Nitrophenyl
caprate N-0252, p-Nitrophenyl butyrate N-9876, p-Nitrophenyl
caproate N-0502, p-Nitrophenyl caprylate N-0752
PURPOSE: Testing protocol to follow Lipase L-17,54 using p-
ENZYME: Lipase (Sigma No. L-1754)
Type VII from Candida cylindracea w/ 30% lactose
p-Nitrophenyl caprate (Sigma No. N-02521)
p-Nitrophenyl butyrate (Sigma No. N-9876)
p-Nitrophenyl caproate (Sigma No. N-0502)
Results: We will do gas runs using p-nitrophenyl caproate and
p-nitrophenyl caprate as substrates. These will be compared to
p-nitrophenyl caproate N-0502
p-nitrophenyl caprate N-0252

[2] = test system: triacylglycerol lipase EC 3.1.1.3; test: Lipase hydrolysis of p-nitrophenyl acetate under gaseous atmospheres (spectrophotometric, 400 nm); type: biochemical, Rhizonus arrhizus; settings: substrate PNP-Acetate, +25° C.
Experimental: FIGS. 1-3 show a typical enzyme assay carried out at 10, 25 and 35 degrees °C. for triacylglycerol lipase catalysts of paranitrophenol acetate hydrolysis.
as §1, §2, §3
Effect of Air, Ne, Ar, Kr, Xe, N2 and O2 on
Lipase L-1754 using p-nitrophenyl acetate
ENZYME: Lipase (Sigma No. L-4384)
Type XI from Rhizonus arrhizus
p-Nitrophenyl acetate (Sigma No. N-8130)
8 DIFFERENT GASEOUS ATMOSPHERES:
3 DIFFERENT TEMPERATURES:
R = 2.0 ml Soln D + 0.5 ml Soln A
fill the cuvettes with 2.0 ml of (p-nitrophenyl
Fill 8 serum vials with 5.0 ml of (lipase
Bubble 10x10cc of the appropriate gas in T1G1 ... 5
Bubble 10xl0cc of the appropriate gas in G1 ... 5
Remove G1 ... 5 serum vials from fridge. Sample soln

Row | Maximum enhancement of lipase activity, PNP-Caprate ([1]; substrate PNP-Caprate, 35° C.) | Maximum enhancement of lipase activity, PNP-Caproate ([1]; 25° C.) | Maximum enhancement of lipase activity, PNP-Caproate ([1]; +35 degrees) | Compound | Maximum enhancement of lipase activity, PNP-Acetate [2] | Maximum inhibition of lipase activity, PNP-Butyrate [1]
1 | +14% | +37% | – | [Ar] [Ar, argon] | – | –
2 | – | – | – | [Kr] [Kr, krypton] | +11% | -25%
3 | – | – | +23% | [Xe] [Xe, xenon] | – | 26%
